# Measured values published in patent publication US10112929B2, “Lactams as inhibitors of rock” (BRISTOL-MYERS SQUIBB COMPANY, priority 2015, dated 2018).
# Molecular target: T1, ROCK2 (Homo sapiens (Human), UniProt O75116)
# Assay: biochemical
# 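Also: rho kinase enzyme reaction halted with EDTA, phospho- and non-phospho peptide separated for read-out, kinase activity inhibition derived across a dose-response series, DMSO under 2%.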
# T1 sequence (O75116 whole entry, species assumed): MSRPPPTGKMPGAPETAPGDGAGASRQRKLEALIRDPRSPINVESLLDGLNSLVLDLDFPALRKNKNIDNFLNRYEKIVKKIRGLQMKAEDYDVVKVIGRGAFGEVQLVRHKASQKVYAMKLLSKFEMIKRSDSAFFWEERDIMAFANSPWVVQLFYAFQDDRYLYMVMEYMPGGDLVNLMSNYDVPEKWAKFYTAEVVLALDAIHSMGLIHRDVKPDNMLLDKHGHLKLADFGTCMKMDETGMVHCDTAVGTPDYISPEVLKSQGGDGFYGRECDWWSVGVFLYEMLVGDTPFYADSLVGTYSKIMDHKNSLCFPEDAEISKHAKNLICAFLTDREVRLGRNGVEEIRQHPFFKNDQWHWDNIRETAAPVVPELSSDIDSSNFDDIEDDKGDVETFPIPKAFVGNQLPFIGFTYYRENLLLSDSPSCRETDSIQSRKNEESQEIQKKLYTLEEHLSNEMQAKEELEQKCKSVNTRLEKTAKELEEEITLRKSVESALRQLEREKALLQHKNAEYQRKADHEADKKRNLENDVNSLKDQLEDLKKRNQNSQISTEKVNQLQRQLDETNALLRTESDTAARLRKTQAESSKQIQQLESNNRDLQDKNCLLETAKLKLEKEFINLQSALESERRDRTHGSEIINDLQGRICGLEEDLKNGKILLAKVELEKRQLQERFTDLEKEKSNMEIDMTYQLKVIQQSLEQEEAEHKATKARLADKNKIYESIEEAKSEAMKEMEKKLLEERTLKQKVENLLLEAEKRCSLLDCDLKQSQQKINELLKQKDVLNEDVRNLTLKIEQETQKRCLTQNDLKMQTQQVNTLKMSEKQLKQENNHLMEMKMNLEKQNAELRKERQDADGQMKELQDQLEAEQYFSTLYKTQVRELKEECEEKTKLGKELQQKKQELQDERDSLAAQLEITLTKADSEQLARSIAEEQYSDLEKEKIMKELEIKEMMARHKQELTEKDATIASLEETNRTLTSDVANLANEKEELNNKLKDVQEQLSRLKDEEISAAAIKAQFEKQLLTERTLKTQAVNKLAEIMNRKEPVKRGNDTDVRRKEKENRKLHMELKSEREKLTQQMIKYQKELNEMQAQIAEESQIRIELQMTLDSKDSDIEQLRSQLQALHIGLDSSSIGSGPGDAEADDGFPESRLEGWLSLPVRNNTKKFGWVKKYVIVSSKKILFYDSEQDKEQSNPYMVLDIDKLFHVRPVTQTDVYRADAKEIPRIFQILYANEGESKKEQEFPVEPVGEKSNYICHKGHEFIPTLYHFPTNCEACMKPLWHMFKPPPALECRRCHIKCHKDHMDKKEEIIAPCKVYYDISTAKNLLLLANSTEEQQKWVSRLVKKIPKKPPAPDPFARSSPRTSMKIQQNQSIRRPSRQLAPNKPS
row,IC50 [µM],SMILES
1,0.01 to 0.1,"COc1cc(NC2CCN(c3ccc(-c4cn[nH]c4)nc3)C2=O)ccc1F (single isomer, unassigned) [Example 299, 1-(6-(1H-pyrazol-4-yl)pyridin-3-yl)-3-((4-fluoro-3-methoxyphenyl)amino)pyrrolidin-2-one]"
2,0.1 to 2.2,"Cc1cccc(OC2CCN(c3ccc(-c4cn[nH]c4)cc3)C2=O)c1 (stereo not shown) [Example 109, 1-(4-(1H-pyrazol-4-yl)phenyl)-3-(m-tolyloxy)pyrrolidin-2-one]"
3,0.01 to 0.1,"COc1cccc(NC2CCN(c3ccc(-c4ccnc5[nH]ccc45)c(OC)n3)C2=O)c1 (racemic) [Example 128, 1-(6-methoxy-5-(1H-pyrrolo[2,3-b]pyridin-4-yl)pyridin-2-yl)-3-((3-methoxyphenyl)amino) pyrrolidin-2-one]"
4,< 0.01,"COc1c(F)cccc1NC1CCN(c2ccc(-c3cn[nH]c3)cn2)C1=O (single isomer, unassigned) [Example 89, 1-(5-(1H-pyrazol-4-yl)pyridin-2-yl)-3-((3-fluoro-2-methoxyphenyl)amino) pyrrolidin-2-one]"
5,0.01 to 0.1,"COc1cccc(NC2CCN(c3ccc(-c4ccnc(N)n4)c(C)n3)C2=O)c1 (single isomer, unassigned) [Example 122, 1-(5-(2-aminopyrimidin-4-yl)-6-methylpyridin-2-yl)-3-((3-methoxyphenyl)amino) pyrrolidin-2-one]"
6,0.1 to 2.2,"CCOc1cc(N2CCC(Nc3cc(OC)ccc3F)C2=O)ccc1-c1cn[nH]c1 (single isomer, unassigned) [Example 40, 1-(3-ethoxy-4-(1H-pyrazol-4-yl)phenyl)-3-((2-fluoro-5-methoxyphenyl)amino)pyrrolidin-2-one]"

# Molecular target: T1, ROCK2
# Assay: not given
row,SMILES,IC50 [µM]
1,"Cc1nc(N2CCC(Nc3cccc(OC(F)F)c3)C2=O)ccc1-c1cn[nH]c1 (single isomer, unassigned) [Example 202, 3-((3-(difluoromethoxy)phenyl)amino)-1-(6-methyl-5-(1H-pyrazol-4-yl)pyridin-2-yl)pyrrolidin-2-one]",0.01 to 0.1
2,"COc1cc(F)cc(NC2CCN(c3ccc(-c4cn[nH]c4)cc3Cl)C2=O)c1 (single isomer, unassigned) [Example 169, 1-(2-chloro-4-(1H-pyrazol-4-yl)phenyl)-3 ((3-fluoro-5-methoxyphenyl)amino) pyrrolidin-2-one]",0.1 to 2.2
3,"COc1ccc(NC2CCN(c3ccc(-c4cn[nH]c4)c(OC)c3)C2=O)c(F)c1 (single isomer, unassigned) [Example 153, 3-((2-fluoro-4-methoxyphenyl)amino)-1-(3-methoxy-4-(1H-pyrazol-4-yl)phenyl) pyrrolidin-2-one]",0.1 to 2.2
4,"COc1ccc(NC2CCN(c3ccc(-c4cn[nH]c4)cc3)C2=O)c(F)c1 (single isomer, unassigned) [Example 20, 1-(4-(1H-pyrazol-4-yl)phenyl)-3-((2-fluoro-4-methoxyphenyl)amino)pyrrolidin-2-one]",0.1 to 2.2
5,"O=C1C(Nc2ccc3c(c2)OC(F)(F)O3)CCN1c1ccc(-c2cn[nH]c2)cc1 (single isomer, unassigned) [Example 54, 1-(4-(1H-pyrazol-4-yl)phenyl)-3-((2,2-difluorobenzo[d][1,3]dioxol-5-yl)amino)pyrrolidin-2-one]",0.1 to 2.2
6,"COc1ccc(F)c(NC2CCN(c3ccc(-c4cn[nH]c4)c(OC)c3)C2=O)c1 (single isomer, unassigned) [Example 149, 3-((2-fluoro-5-methoxyphenyl)amino)-1-(3-methoxy-4-(1H-pyrazol-4-yl)phenyl) pyrrolidin-2-one]",0.01 to 0.1
7,"COc1cc(NC2CCN(c3ccc(-c4cn[nH]c4)c(OC)n3)C2=O)ccc1F (single isomer, unassigned) [Example 208, 3-((4-fluoro-3-methoxyphenyl)amino)-1-(6-methoxy-5-(1H-pyrazol-4-yl)pyridin-2-yl)pyrrolidin-2-one]",< 0.01
8,"COc1ccc(NC2CCN(c3ccc(-c4cn[nH]c4)c(OC)c3)C2=O)cc1F (single isomer, unassigned) [Example 142, 3-((3-fluoro-4-methoxyphenyl)amino)-1-(3-methoxy-4-(1H-pyrazol-4-yl)phenyl) pyrrolidin-2-one]",0.1 to 2.2
9,"COc1cc(F)cc(NC2CCN(c3ccc(-c4cn[nH]c4)cn3)C2=O)c1 (single isomer, unassigned) [Example 87, 1-(5-(1H-pyrazol-4-yl)pyridin-2-yl)-3-((3-fluoro-5-methoxyphenyl)amino)pyrrolidin-2-one]",0.01 to 0.1
10,"COc1cc(NC2CCN(c3ccc(-c4cn[nH]c4)c(OC)c3)C2=O)cc(OC)c1 (single isomer, unassigned) [Example 140, 3-((3,5-dimethoxyphenyl)amino)-1-(3-methoxy-4-(1H-pyrazol-4-yl)phenyl) pyrrolidin-2-one]",0.1 to 2.2
11,"COCc1cc(N2CCC(Nc3ccc(F)c(OC)c3)C2=O)ccc1-c1cn[nH]c1 (single isomer, unassigned) [Example 182, 3-((4-fluoro-3-methoxyphenyl)amino)-1-(3-(methoxymethyl)-4-(1H-pyrazol-4-yl)phenyl)pyrrolidin-2-one]",0.1 to 2.2
12,"CCc1cc(N2CCC(Nc3cccc(OC)c3)C2=O)ncc1-c1cn[nH]c1 (single isomer, unassigned) [Example 204, 1-(4-ethyl-5-(1H-pyrazol-4-yl)pyridin-2-yl)-3-((3-methoxyphenyl)amino) pyrrolidin-2-one]",0.1 to 2.2
13,"COc1ccc(NC2CCN(c3ccc(-c4cn[nH]c4)c(Cl)c3)C2=O)cc1F (single isomer, unassigned) [Example 157, 1-(3-chloro-4-(1H-pyrazol-4-yl)phenyl)-3 ((3-fluoro-4-methoxyphenyl)amino) pyrrolidin-2-one]",0.1 to 2.2
14,"COc1cc(NC2CCN(c3ccc(-c4cn[nH]c4)c(C)n3)C2=O)ccc1F (single isomer, unassigned) [Example 195, 3-((4-fluoro-3-methoxyphenyl)amino)-1-(6-methyl-5-(1H-pyrazol-4-yl)pyridin-2-yl)pyrrolidin-2-one]",0.01 to 0.1

# Results, then the compound that gave them:
row,IC50 [µM],SMILES
1,0.1 to 2.2,"COc1ccc(N[C@@H]2CCN(c3ccc(-c4cn[nH]c4)cc3)C2=O)c(OC)c1 [Example 395, (R)-1-(4-(1H-pyrazol-4-yl)phenyl)-3-((2,4-dimethoxyphenyl)amino)pyrrolidin-2-one]"
2,0.1 to 2.2,"COc1cc(NC2CCN(c3ccc(-c4cn[nH]c4)c(C#N)c3)C2=O)ccc1F (single isomer, unassigned) [Example 380, 5-(3-((4-fluoro-3-methoxyphenyl)amino)-2-oxopyrrolidin-1-yl)-2-(1H-pyrazol-4-yl)benzonitrile]"
3,0.1 to 2.2,"COc1cc(NC2CCN(c3ccc(-c4cn[nH]c4)c(OCCN(C)C)c3)C2=O)ccc1F (racemic) [Example 347, 1-(3-(2-(dimethylamino)ethoxy)-4-(1H-pyrazol-4-yl)phenyl)-3-((4-fluoro-3-methoxyphenyl)amino)pyrrolidin-2-one]"
4,0.01 to 0.1,"COc1ccc(F)c(NC2CCN(c3ccc(-c4cn[nH]c4)c(F)c3)C2=O)c1 (single isomer, unassigned) [Example 335, 1-(3-fluoro-4-(1H-pyrazol-4-yl)phenyl)-3-((2-fluoro-5-methoxyphenyl)amino) pyrrolidin-2-one]"
5,< 0.01,"COc1nc(N2CCC(Nc3cccc(OCC4CC4)c3)C2=O)ccc1-c1cn[nH]c1 (single isomer, unassigned) [Example 215, 3-((3-(cyclopropylmethoxy)phenyl)amino)-1-(6-methoxy-5-(1H-pyrazol-4-yl)pyridin-2-yl)pyrrolidin-2-one]"
6,0.1 to 2.2,"COc1cc(NC2CCN(c3ccc(-c4cn[nH]c4)c(C(F)(F)F)c3)C2=O)ccc1F (single isomer, unassigned) [Example 372, 1-(4-(1H-pyrazol-4-yl)-3-(trifluoromethyl)phenyl)-3-((4-fluoro-3-methoxyphenyl)amino)pyrrolidin-2-one]"
7,0.01 to 0.1,"COc1cc(NC2CCN(c3ccc(-c4cn[nH]c4)nc3)C2=O)ccc1F (single isomer, unassigned) [Example 300, 1-(6-(1H-pyrazol-4-yl)pyridin-3-yl)-3-((4-fluoro-3-methoxyphenyl)amino)pyrrolidin-2-one]"
8,0.01 to 0.1,"COc1cccc(NC2CCN(c3ccc(-c4cn[nH]c4)cc3F)C2=O)c1 (single isomer, unassigned) [Example 329, 1-(2-fluoro-4-(1H-pyrazol-4-yl)phenyl)-3-((3-methoxyphenyl)amino)pyrrolidin-2-one]"
9,< 0.01,"COc1nc(N2CCC(Nc3cccc(OC(F)F)c3)C2=O)ccc1-c1cn[nH]c1 (single isomer, unassigned) [Example 221, 3-((3-(difluoromethoxy)phenyl)amino)-1-(6-methoxy-5-(1H-pyrazol-4-yl)pyridin-2-yl)pyrrolidin-2-one]"
10,0.01 to 0.1,"COc1cccc(NC2CCN(c3ccc(-c4cn[nH]c4)nc3)C2=O)c1 (single isomer, unassigned) [Example 298, 1-(6-(1H-pyrazol-4-yl)pyridin-3-yl)-3-((3-methoxyphenyl)amino)pyrrolidin-2-one]"
11,0.01 to 0.1,"COc1cc(NC2CCN(c3ccc(-c4cn[nH]c4)c(F)c3F)C2=O)ccc1F (single isomer, unassigned) [Example 308, 1-(2,3-difluoro-4-(1H-pyrazol-4-yl)phenyl)-3-((4-fluoro-3-methoxyphenyl)amino)pyrrolidin-2-one]"
12,0.01 to 0.1,"COc1ccc(F)c(NC2CCN(c3ccc(-c4cn[nH]c4)cc3)C2=O)c1 (single isomer, unassigned) [Example 240, 1-(4-(1H-pyrazol-4-yl)phenyl)-3-((2-fluoro-5-methoxyphenyl)amino)pyrrolidin-2-one]"
13,0.01 to 0.1,"COc1cc(NC2CCN(c3ccc(-c4cn[nH]c4)cc3F)C2=O)ccc1F (single isomer, unassigned) [Example 331, 3-((4-fluoro-3-methoxyphenyl)amino)-1-(2-fluoro-4-(1H-pyrazol-4-yl)phenyl) pyrrolidin-2-one]"
14,< 0.01,"COc1cccc(NC2CCN(c3cc(F)c(-c4cn[nH]c4)c(F)c3)C2=O)c1 (single isomer, unassigned) [Example 312, 1-(3,5-difluoro-4-(1H-pyrazol-4-yl)phenyl)-3-((3-methoxyphenyl)amino)pyrrolidin-2-one]"
